{"source": "patent US8173840B2", "about": "“Compounds with high therapeutic index” (Signature R&D Holdings, LLC, priority 2003, dated 2012)", "key": {"[1]": {"test_system": "albino rats (Wistar strain)", "experiment": "28-day repeated dose oral toxicity test of Acetylsalicylic Acid-L-Threonine Ester", "conditions": "100 mg/kg as aspirin, oral gavage daily 28 days", "experimental": "(§1) The study was conducted at one dose level only along with a vehicle control group as per the recommendation of the Sponsor. The test doses are expressed as Aspirin molar equivalents."}, "[2]": {"experiment": "Plasma aspirin and salicylic acid in human volunteers", "assay_type": "in vivo", "from_the_text": "This is shown in FIG. 12 which depicts the concentration of salicyclic Acid in human plasma with respect to four volunteers who took Acetylsalicyclic Acid-L-Threonine Ester and two volunteers who took Aspirin."}, "[3]": {"test_system": "albino rats (Wistar strain)", "conditions": "rat, in vivo", "experimental": "as §1"}, "Male albino rats": {"test_system": "Male albino rats", "experiment": "Blood clotting time in albino rats, 2 hours after dosing", "assay_type": "in vivo, rat", "conditions": "20 mg/kg as aspirin, 2 hours (±10 minutes) after dosing", "method": "Aspirin served as positive control. Male albino rats were exposed to aspirin and to 3 new formulations of amino acid derivatives of aspirin derivatives at one dose level of 20 mg/kg body weight. […]. The doses were expressed as aspirin molar equivalents.\nThe efficacy in terms of time required for the blood clotting time at the dose level of 20 mg/kg body weight for different formulations of amino acid derivatives of aspirin and aspirin (positive control) are presented below:\nThe data on the mean clotting time (MCT) of the animals, estimated 2 hours (±10 minutes) after dosing, at the dose level of 20 mg/kg body weight for the formulations of aspirin derivatives, vehicle control and positive control are presented below"}, "[4]": {"test_system": "fasted male albino rats (Wistar strain)", "experiment": "Gastric mucosa irritation of acetylsalicylic acid esters", "assay_type": "in vivo, rat", "conditions": "single dose by gavage, 3 hours, 5 animals", "method": "Aspirin served as a reference control. […] All the doses were expressed as aspirin molar equivalents. The doses used as well as the molar equivalents are presented below. The rats were fasted for a period of 18 to 22 hours before dosing. The test item was administered as a single dose by gavage. Three hours after drug administration, the animals were killed humanely by CO2 gas inhalation. The stomach was dissected out and observed for • the quantity of mucous exudate, • degree of hyperemia and thickening of stomach wall, • hemorrhagic spots (focal or diffuse), nature of hemorrhages (petechial or ecchymotic) along with the size and • perforations"}, "women": {"test_system": "women", "conditions": "daily dose of 60 mg, more than 9000 women; cited from earlier work"}, "human volunteers": {"test_system": "human volunteers", "experiment": "Blood clotting time studies in human volunteers", "assay_type": "in vivo", "conditions": "human volunteers", "method": "Several blood clotting time studies were performed on a limited number of human volunteers with Acetylsalicylic Acid-L-Threonine Ester. […] This plot was derived from the data in Table 29. The two Acetylsalicylic Acid-L-Threonine Ester blocks shown above correspond to two separate volunteers who took the test drug over a period of 5 days. The third volunteer took Bayer Aspirin for 5 days. As per FIG. 2, increase in clotting time occurred on the very first day of drug intake, and remained higher than Bayer ASA during the subsequent administrations."}, "albino rats": {"test_system": "albino rats", "experiment": "Blood clotting time in albino rats, one hour after dosing", "assay_type": "in vivo, rat", "conditions": "one hour after dosing", "method": "The data on the mean clotting time (MCT) of the animals of low, intermediate and high dose groups of different formulations, vehicle control and positive control groups estimated one hour after dosing were presented below (Table 19):\nAspirin served as positive control. The study was conducted at three dose levels with the new formulations and positive control along with a vehicle control group.\nThe doses for the main study were selected based on the dose range finding experiments with acetylsalicylic acid. All the doses were expressed as aspirin molar equivalents. The doses used are presented below."}, "rats": {"test_system": "rats", "experiment": "Clotting time in rats, different date, time intervals and doses (Table 24)", "assay_type": "in vivo, rat", "from_the_text": "The following additional data were obtained, when the same drugs were compared in rats on a different date with different time intervals and doses: […]"}}}
{"smiles": "CC(=O)Oc1ccccc1C(=O)O", "note": "[acetylsalicylic acid, reference compound]", "values": [{"measurement": "survival", "setting": "[1]", "result": "survived through the dosing period of 28 days"}, {"measurement": "Salicylic Acid in human plasma (profile, words)", "setting": "[2]", "result": "Rapid influx and efflux of Salicylic Acid"}, {"measurement": "Aspirin in blood / plasma", "setting": "[2]; 325 mg dose, oral", "result": "showed Plasma levels of Aspirin"}, {"measurement": "Alkaline Phosphatase, Significance [P < 0.05]", "setting": "[3]", "result": "Increase (Female)"}, {"measurement": "All Blood Parameters, Significance [P < 0.05]", "setting": "[3]", "result": "None"}, {"measurement": "Blood Urea, Significance [P < 0.05]", "setting": "[3]", "result": "Decrease (Female)"}, {"measurement": "Food intake", "setting": "[3]", "result": "normal and comparable to the animals of vehicle control group"}, {"measurement": "Kidney (Abs) organ weight, Significance[P < 0.05]", "setting": "[3]", "result": "Decrease (Male)"}, {"measurement": "Kidney (Rel) organ weight, Significance[P < 0.05]", "setting": "[3]", "result": "Increase (Male)"}, {"measurement": "SGPT and Cholesterol, Significance [P < 0.05]", "setting": "[3]", "result": "Increase (Male)"}, {"measurement": "Sodium, Significance [P < 0.05]", "setting": "[3]", "result": "Increase (Female)"}, {"measurement": "Spleen (Abs) organ weight, Significance[P < 0.05]", "setting": "[3]", "result": "Decrease (Female)"}, {"measurement": "Spleen (Rel) organ weight, Significance[P < 0.05]", "setting": "[3]", "result": "Increase (Female)"}, {"measurement": "histological sections of organs", "setting": "[3]", "result": "mild fatty changes in the cardiac muscle fibers of heart and mild catarrhal changes of gastric mucosa"}, {"measurement": "Mean Clotting Time (± S.D.)", "setting": "Male albino rats", "result": "5.4 ± 1.17", "unit": "min"}, {"measurement": "Observation, gastric mucosal irritation", "setting": "[4]; 100.0 mg/kg as acetylsalicylic acid, listed as aspirin", "result": "failed to cause any evidence of gastric mucosal irritation"}, {"measurement": "Observation, gastric mucosal irritation", "setting": "[4]; 200.0 mg/kg as acetylsalicylic acid, listed as aspirin (acetylsalicylic acid)", "result": "caused irritation of the gastric mucosal in all the fasted male albino rats"}, {"measurement": "reduced the risk of pre-eclampsia by", "setting": "women", "result": 13, "unit": "%"}, {"measurement": "AVERAGE CLOTTING TIME", "setting": "human volunteers; 81 mg", "result": 4.5, "unit": "min"}, {"measurement": "AVERAGE CLOTTING TIME", "setting": "human volunteers; 325 mg", "result": 5.7, "unit": "min"}, {"measurement": "Mean Clotting Time (±S.D.), Low Dose", "setting": "albino rats; 1.0 mg/kg as aspirin", "result": "6.2 ± 1.40", "unit": "min"}, {"measurement": "Mean Clotting Time (±S.D.), Intermediate Dose", "setting": "albino rats; 4.0 mg/kg as aspirin", "result": "8.1 ± 1.97", "unit": "min"}, {"measurement": "Mean Clotting Time (±S.D.), High Dose", "setting": "albino rats; 10.0 mg/kg as aspirin", "result": "9.8 ± 1.32", "unit": "min"}, {"measurement": "statistical analysis of mean clotting time vs vehicle control", "setting": "albino rats", "result": "significant improvement at 5% significance level in the efficacy for the intermediate and high dose"}, {"measurement": "Clotting Time", "setting": "rats; 10 mg/kg 1 hr", "result": 9.8, "unit": "min"}, {"measurement": "Clotting Time", "setting": "rats; 10 mg/kg 24 hr", "result": 4.4, "unit": "min"}, {"measurement": "Clotting Time", "setting": "rats; 20 mg/kg 2 hr", "result": 5.4, "unit": "min"}]}
